Assay results as given in US20050197350A1, “Novel quinoline, tetrahydroquinazoline, and pyrimidine derivatives and methods of treatment related to the use thereof” (TAISHO PHARMACEUTICAL CO., LTD., priority 2003, published 2005).

test system: MCH receptors; test: MCH receptor activity class (method not given); conditions: class by percent of control at 10^−7 M or IC50

| Compound | class |
| --- | --- |
| Cc1cnc(N[C@H]2CC[C@@H](CNC(=O)c3ccc(Cl)c(Cl)c3)CC2)nc1N(C)C [compound 2707, 3,4-dichloro-N-[(cis-4-{[4-(dimethylamino)-5-methylpyrimidin-2-yl]amino}cyclohexyl)methyl]benzamide] | 1 (Class 1: The value of percent of control at 10^−7 M was less than 40% or the value of IC50 was less than 50 nM.) |
| Cc1cnc(N[C@H]2CC[C@@H](CNC(=O)c3ccc4c(c3)OC(F)(F)O4)CC2)nc1N(C)C [compound 2708] | 2 (Class 2: The value of percent of control at 10^−7 M was from 40% to 60% or the value of IC′50 was from 50 nM to 200 nM.) |
| Cc1cnc(N[C@H]2CC[C@@H](CNC(=O)c3ccc(-c4ccccc4)cc3)CC2)nc1N(C)C [compound 2709] | 3 (Class 3 The value of percent of control at 10^−7 M was more than 60% or the value of IC50 was more than 200 nM.) |
| Cc1cnc(N[C@H]2CC[C@@H](CNC(=O)c3ccc(Cl)cc3)CC2)nc1N(C)C [compound 2710, 4-chloro-N-[(cis-4-{[4-(dimethylamino)-5-methylpyrimidin-2-yl]amino}cyclohexyl)methyl]benzamide] | 2 (Class 2: The value of percent of control at 10^−7 M was from 40% to 60% or the value of IC′50 was from 50 nM to 200 nM.) |
| COc1cc(OC)cc(C(=O)NC[C@H]2CC[C@@H](Nc3nc(C)cc(N(C)C)n3)CC2)c1 [compound 2711] | 2 (Class 2: The value of percent of control at 10^−7 M was from 40% to 60% or the value of IC′50 was from 50 nM to 200 nM.) |
| Cc1cnc(NC[C@H]2CC[C@@H](NC(=O)c3ccccc3)CC2)nc1N(C)C [compound 2712, N-[cis-4-({[4-(dimethylamino)-5-methylpyrimidin-2-yl]amino}methyl)cyclohexyl]benzamide] | 3 (Class 3 The value of percent of control at 10^−7 M was more than 60% or the value of IC50 was more than 200 nM.) |
| Cc1ccc(C(=O)N[C@H]2CC[C@@H](CNc3ncc(C)c(N(C)C)n3)CC2)cc1 [compound 2713] | 3 (Class 3 The value of percent of control at 10^−7 M was more than 60% or the value of IC50 was more than 200 nM.) |
| Cc1cnc(NC[C@H]2CC[C@@H](NC(=O)c3ccc(F)c(F)c3)CC2)nc1N(C)C [compound 2714] | 3 (Class 3 The value of percent of control at 10^−7 M was more than 60% or the value of IC50 was more than 200 nM.) |
| COc1ccc(C(=O)N[C@H]2CC[C@@H](CNc3ncc(C)c(N(C)C)n3)CC2)cc1 [compound 2715] | 3 (Class 3 The value of percent of control at 10^−7 M was more than 60% or the value of IC50 was more than 200 nM.) |
| COc1cc(OC)cc(C(=O)N[C@H]2CC[C@@H](CNc3ncc(C)c(N(C)C)n3)CC2)c1 [compound 2716, N-[cis-4-({[4-(dimethylamino)-5-methylpyrimidin-2-yl]amino}methyl)cyclohexyl]-3,5-dimethoxybenzamide] | 2 (Class 2: The value of percent of control at 10^−7 M was from 40% to 60% or the value of IC′50 was from 50 nM to 200 nM.) |
| Cc1ccc(C(=O)N[C@H]2CC[C@@H](CNc3ncc(C)c(N(C)C)n3)CC2)cc1F [compound 2717] | 3 (Class 3 The value of percent of control at 10^−7 M was more than 60% or the value of IC50 was more than 200 nM.) |
| Cc1cc(C(=O)N[C@H]2CC[C@@H](CNc3ncc(C)c(N(C)C)n3)CC2)ccc1F [compound 2718] | 2 (Class 2: The value of percent of control at 10^−7 M was from 40% to 60% or the value of IC′50 was from 50 nM to 200 nM.) |
| Cc1cnc(NC[C@H]2CC[C@@H](NC(=O)c3cccc(C(F)(F)F)c3)CC2)nc1N(C)C [compound 2719] | 3 (Class 3 The value of percent of control at 10^−7 M was more than 60% or the value of IC50 was more than 200 nM.) |
| Cc1cnc(NC[C@H]2CC[C@@H](NC(=O)c3ccc(C(F)(F)F)cc3)CC2)nc1N(C)C [compound 2720] | 3 (Class 3 The value of percent of control at 10^−7 M was more than 60% or the value of IC50 was more than 200 nM.) |
| Cc1cnc(NC[C@H]2CC[C@@H](NC(=O)c3cccc(OC(F)(F)F)c3)CC2)nc1N(C)C [compound 2721] | 3 (Class 3 The value of percent of control at 10^−7 M was more than 60% or the value of IC50 was more than 200 nM.) |
| Cc1cnc(NC[C@H]2CC[C@@H](NC(=O)c3ccc(OC(F)(F)F)cc3)CC2)nc1N(C)C [compound 2722] | 3 (Class 3 The value of percent of control at 10^−7 M was more than 60% or the value of IC50 was more than 200 nM.) |
| Cc1cnc(NC[C@H]2CC[C@@H](NC(=O)c3ccc(C#N)cc3)CC2)nc1N(C)C [compound 2723] | 3 (Class 3 The value of percent of control at 10^−7 M was more than 60% or the value of IC50 was more than 200 nM.) |
| Cc1cnc(NC[C@H]2CC[C@@H](NC(=O)c3ccc(Br)cc3)CC2)nc1N(C)C [compound 2724, 4-bromo-N-[cis-4-({[4-(dimethylamino)-5-methylpyrimidin-2-yl]amino}methyl)cyclohexyl]benzamide] | 3 (Class 3 The value of percent of control at 10^−7 M was more than 60% or the value of IC50 was more than 200 nM.) |

| Compound | class |
| --- | --- |
| Cc1cc(C(=O)N[C@H]2CC[C@@H](CNc3ncc(C)c(N(C)C)n3)CC2)ccc1Br [compound 2725, 4-bromo-N-[cis-4-({[4-(dimethylamino)-5-methylpyrimidin-2-yl]amino}methyl)cyclohexyl]-3-methylbenzamide] | 2 (Class 2: The value of percent of control at 10^−7 M was from 40% to 60% or the value of IC′50 was from 50 nM to 200 nM.) |
| Cc1cnc(NC[C@H]2CC[C@@H](NC(=O)c3ccc(F)c(Cl)c3)CC2)nc1N(C)C [compound 2726] | 2 (Class 2: The value of percent of control at 10^−7 M was from 40% to 60% or the value of IC′50 was from 50 nM to 200 nM.) |
| Cc1cnc(NC[C@H]2CC[C@@H](NC(=O)c3ccc(C(F)(F)F)c(F)c3)CC2)nc1N(C)C [compound 2727] | 3 (Class 3 The value of percent of control at 10^−7 M was more than 60% or the value of IC50 was more than 200 nM.) |
| Cc1cnc(NC[C@H]2CC[C@@H](NC(=O)c3cc(Cl)cc(Cl)c3)CC2)nc1N(C)C [compound 2728, 3,5-dichloro-N-[cis-4-({[4-(dimethylamino)-5-methylpyrimidin-2-yl]amino}methyl)cyclohexyl]benzamide] | 2 (Class 2: The value of percent of control at 10^−7 M was from 40% to 60% or the value of IC′50 was from 50 nM to 200 nM.) |
| Cc1cnc(NC[C@H]2CC[C@@H](NC(=O)c3ccc(Cl)c(Cl)c3)CC2)nc1N(C)C [compound 2729, 3,4-dichloro-N-[cis-4-({[4-(dimethylamino)-5-methylpyrimidin-2-yl]amino}methyl)cyclohexyl]benzamide] | 3 (Class 3 The value of percent of control at 10^−7 M was more than 60% or the value of IC50 was more than 200 nM.) |
| Cc1cnc(NC[C@H]2CC[C@@H](NC(=O)c3ccc4c(c3)OC(F)(F)O4)CC2)nc1N(C)C [compound 2730] | 3 (Class 3 The value of percent of control at 10^−7 M was more than 60% or the value of IC50 was more than 200 nM.) |
| Cc1cnc(NC[C@H]2CC[C@@H](NC(=O)c3cc(C(F)(F)F)cc(C(F)(F)F)c3)CC2)nc1N(C)C [compound 2731, N-[cis-4-({[4-(dimethylamino)-5-methylpyrimidin-2-yl]amino}methyl)cyclohexyl]-3,5-bis(trifluoromethyl)benzamide] | 2 (Class 2: The value of percent of control at 10^−7 M was from 40% to 60% or the value of IC′50 was from 50 nM to 200 nM.) |
| Cc1cc(N(C)C)nc(NC[C@H]2CC[C@@H](NC(=O)c3ccccc3)CC2)n1 [compound 2732, N-[cis-4-({[4-(dimethylamino)-6-methylpyrimidin-2-yl]amino}methyl)cyclohexyl]benzamide] | 3 (Class 3 The value of percent of control at 10^−7 M was more than 60% or the value of IC50 was more than 200 nM.) |
| Cc1ccc(C(=O)N[C@H]2CC[C@@H](CNc3nc(C)cc(N(C)C)n3)CC2)cc1 [compound 2733] | 3 (Class 3 The value of percent of control at 10^−7 M was more than 60% or the value of IC50 was more than 200 nM.) |
| Cc1cc(N(C)C)nc(NC[C@H]2CC[C@@H](NC(=O)c3ccc(F)c(F)c3)CC2)n1 [compound 2734, N-[cis-4-({[4-(dimethylamino)-6-methylpyrimidin-2-yl]amino}methyl)cyclohexyl]-3,4-difluorobenzamide] | 3 (Class 3 The value of percent of control at 10^−7 M was more than 60% or the value of IC50 was more than 200 nM.) |
| COc1ccc(C(=O)N[C@H]2CC[C@@H](CNc3nc(C)cc(N(C)C)n3)CC2)cc1 [compound 2735] | 3 (Class 3 The value of percent of control at 10^−7 M was more than 60% or the value of IC50 was more than 200 nM.) |
| COc1cc(OC)cc(C(=O)N[C@H]2CC[C@@H](CNc3nc(C)cc(N(C)C)n3)CC2)c1 [compound 2736] | 3 (Class 3 The value of percent of control at 10^−7 M was more than 60% or the value of IC50 was more than 200 nM.) |
| Cc1cc(N(C)C)nc(NC[C@H]2CC[C@@H](NC(=O)c3ccc(C)c(F)c3)CC2)n1 [compound 2737] | 3 (Class 3 The value of percent of control at 10^−7 M was more than 60% or the value of IC50 was more than 200 nM.) |
| Cc1cc(N(C)C)nc(NC[C@H]2CC[C@@H](NC(=O)c3ccc(F)c(C)c3)CC2)n1 [compound 2738] | 3 (Class 3 The value of percent of control at 10^−7 M was more than 60% or the value of IC50 was more than 200 nM.) |
| Cc1cc(N(C)C)nc(NC[C@H]2CC[C@@H](NC(=O)c3cccc(C(F)(F)F)c3)CC2)n1 [compound 2739] | 3 (Class 3 The value of percent of control at 10^−7 M was more than 60% or the value of IC50 was more than 200 nM.) |
| Cc1cc(N(C)C)nc(NC[C@H]2CC[C@@H](NC(=O)c3ccc(C(F)(F)F)cc3)CC2)n1 [compound 2740] | 3 (Class 3 The value of percent of control at 10^−7 M was more than 60% or the value of IC50 was more than 200 nM.) |
| Cc1cc(N(C)C)nc(NC[C@H]2CC[C@@H](NC(=O)c3cccc(OC(F)(F)F)c3)CC2)n1 [compound 2741] | 3 (Class 3 The value of percent of control at 10^−7 M was more than 60% or the value of IC50 was more than 200 nM.) |
| Cc1cc(N(C)C)nc(NC[C@H]2CC[C@@H](NC(=O)c3ccc(OC(F)(F)F)cc3)CC2)n1 [compound 2742] | 3 (Class 3 The value of percent of control at 10^−7 M was more than 60% or the value of IC50 was more than 200 nM.) |
